# Patent publication US11332452B2, “Pesticidal compositions and methods” (priority 2019, dated 2022)
# What was measured:
# Format in all cases: in vivo
# [1] = tested on: Beet Armyworm (Spodoptera exigua, LAPHEG); assay: Insecticidal test for beet armyworm (BAW), 128-well diet tray assay; conditions: 168 h, 50 μg/cm^2 of test compound on artificial diet, second instar larvae, 25° C., five to seven days, average of eight wells, read-out: BAW % Control (or Mortality) rating
# Protocol: Insecticidal Test for Beet Armyworm (Spodoptera exigua, LAPHEG) (“BAW”)
# (§1) Bioassays on beet armyworm (BAW; Spodoptera exigua: Lepidoptera) are conducted using a 128-well diet tray assay. One to five second instar BAW larvae are placed in each well (3 mL) of the diet tray that had been previously filled with 1 mL of artificial diet to which 50 μg/cm^2 of the test compound (dissolved in 50 μL of 90:10 acetone-water mixture) had been applied (to each of eight wells) and then allowed to dry. Trays are covered with a clear self-adhesive cover, vented to allow gas exchange, and held at 25° C., 14:10 light-dark for five to seven days. Percent mortality is recorded for the larvae in each well; activity in the eight wells is then averaged.
# [2] = tested on: Cabbage Looper (Trichloplusia Ni, TRIPNI); assay: Insecticidal test for cabbage looper (CL), 128-well diet tray assay; conditions: Trichoplusia ni, 168 h, read-out: CL % Control (or Mortality) rating
# Protocol: Insecticidal Test for Cabbage Looper (Trichloplusia Ni, TRIPNI) (“CL”)
# as §1, with “cabbage looper (CL; Trichloplusia ni:” for “beet armyworm (BAW; Spodoptera exigua:”, “CL” for “BAW”
# [3] = tested on: Yellow Fever Mosquito (Aedes aegypti, AEDSAE); assay: Insecticidal test for yellow fever mosquito (YFM), 96-well plate larval assay; conditions: from 4000 ppm DMSO master solution, diluted; about 1 day-old larvae; room temperature; scored after 3 days
# Protocol: Insecticidal Test for Yellow Fever Mosquito (Aedes aegypti, AEDSAE) (“YFM”)
# Master plates containing 400 μg of a molecule dissolved in 100 μL of dimethyl sulfoxide (DMSO) (equivalent to a 4000 ppm solution) are used. A master plate of assembled molecules contains 15 μL per well. To this plate, 135 μL of a 90:10 water/acetone mixture is added to each well. A robot (Biomek® NXP Laboratory Automation Workstation) is programmed to dispense 15 μL aspirations from the master plate into an empty 96-well shallow plate (“daughter” plate). There are 6 reps (“daughter” plates) created per master. The created “daughter” plates are then immediately infested with YFM larvae.
# The day before plates are to be treated, mosquito eggs are placed in Millipore water containing liver powder to begin hatching (4 g. into 400 mL). After the “daughter” plates are created using the robot, they are infested with 220 μL of the liver powder/larval mosquito mixture (about 1 day-old larvae). After plates are infested with mosquito larvae, a non-evaporative lid is used to cover the plate to reduce drying. Plates are held at room temperature for 3 days prior to grading. After 3 days, each well is observed and scored based on mortality.
compound,measurement,setting,value
"CCCc1ccc(OC)cc1N1C(=O)CS/C1=N\C(=O)NCCc1ccc(NC(=O)Nc2ccc(OC(F)(F)F)cc2)cc1 [Compound A18, (Z)-1-(4-(2-(3-(3-(5-Methoxy-2-propylphenyl)-4-oxothiazolidin-2-ylidene)ureido)ethyl)phenyl)-3-(4-(trifluoromethoxy)phenyl)urea]",mortality at 50 µg/cm2,[1],50 to 100%
same,mortality at 50 µg/cm2,[2],50 to 100%
same,YFM % Control (or Mortality) rating,[3],B (More than 0-Less than 80)
"Cc1ccc(OCC(F)(F)F)c(N2C(=O)CS/C2=N\C(=O)NCCc2ccc(NC(=O)Nc3ccc(OC(F)(F)F)cc3)cc2)c1 [Compound A19, (Z)-1-(4-(2-(3-(3-(5-Methyl-2-(2,2,2-trifluoroethoxy)phenyl)-4-oxothiazolidin-2-ylidene)ureido)ethyl)phenyl)-3-(4-(trifluoromethoxy)phenyl)urea]",mortality at 50 µg/cm2,[1],50 to 100%
same,mortality at 50 µg/cm2,[2],50 to 100%
same,YFM % Control (or Mortality) rating,[3],B (More than 0-Less than 80)
CCC(C)Oc1ccc(C)cc1N1C(=O)CS/C1=N\C(=O)NCCc1ccc(NC(=O)Nc2ccc(OC(F)(F)F)cc2)cc1 (stereo not drawn) [Compound A20],mortality at 50 µg/cm2,[1],50 to 100%
same,mortality at 50 µg/cm2,[2],50 to 100%
same,YFM % Control (or Mortality) rating,[3],B (More than 0-Less than 80)
"COc1ccc(N2C(=O)CS/C2=N\C(=O)NCCc2ccc(NC(=O)Nc3ccc(OC(F)(F)F)cc3)cc2)c(C)c1 [Compound A21, (Z)-1-(4-(2-(3-(3-(4-methoxy-2-methylphenyl)-4-oxothiazolidin-2-ylidene)ureido)ethyl)phenyl)-3-(4-(trifluoromethoxy)phenyl)urea]",mortality at 50 µg/cm2,[1],50 to 100%
same,mortality at 50 µg/cm2,[2],50 to 100%
same,YFM % Control (or Mortality) rating,[3],A (80-100)
"Cc1ccc(C(C)C)c(-n2ccs/c2=N\C(=O)NCCc2ccc(NC(=O)Nc3ccc(OC(F)(F)F)cc3)cc2)c1 [Compound A22, (Z)-1-(4-(2-(3-(3-(2-Isopropyl-5-methylphenyl)thiazol-2(3H)-ylidene)ureido)ethyl)phenyl)-3-(4-(trifluoromethoxy)phenyl)urea]",mortality at 50 µg/cm2,[1],50 to 100%
same,mortality at 50 µg/cm2,[2],50 to 100%
same,YFM % Control (or Mortality) rating,[3],A (80-100)
"CCc1cccc(C)c1N1C(=O)CS/C1=N\C(=O)NCCc1ccc(NC(=O)Nc2ccc(OC(F)(F)F)cc2)cc1 [Compound A23, (Z)-1-(4-(2-(3-(3-(2-Ethyl-6-methylphenyl)-4-oxothiazolidin-2-ylidene)ureido)ethyl)phenyl)-3-(4-(trifluoromethoxy)phenyl)urea]",mortality at 50 µg/cm2,[1],50 to 100%
same,mortality at 50 µg/cm2,[2],50 to 100%
same,YFM % Control (or Mortality) rating,[3],A (80-100)
"O=C(/N=C1\SCC(=O)N1c1cccc2c1CCCC2)NCCc1ccc(NC(=O)Nc2ccc(OC(F)(F)F)cc2)cc1 [Compound A24, (Z)-1-(4-(2-(3-(4-Oxo-3-(5,6,7,8-tetrahydronaphthalen-1-yl)thiazolidin-2-ylidene)ureido)ethyl)phenyl)-3-(4-(trifluoromethoxy)phenyl)urea]",mortality at 50 µg/cm2,[1],50 to 100%
same,mortality at 50 µg/cm2,[2],50 to 100%
same,YFM % Control (or Mortality) rating,[3],B (More than 0-Less than 80)
"Cc1cc(N2C(=O)CS/C2=N\C(=O)NCCc2ccc(NC(=O)Nc3ccc(OC(F)(F)F)cc3)cc2)c(C(C)C)cc1F [Compound A25, (Z)-1-(4-(2-(3-(3-(4-Fluoro-2-isopropyl-5-methylphenyl)-4-oxothiazolidin-2-ylidene)ureido)ethyl)phenyl)-3-(4-(trifluoromethoxy)phenyl)urea]",mortality at 50 µg/cm2,[1],50 to 100%
same,mortality at 50 µg/cm2,[2],50 to 100%
same,YFM % Control (or Mortality) rating,[3],A (80-100)
"Cc1ccc(C(C)C)c(N2C(=O)CS/C2=N\C(=O)NC(C)Cc2ccc(NC(=O)Nc3ccc(OC(F)(F)F)cc3)cc2)c1 (stereo not drawn) [Compound A26, (Z)-1-(3-(2-Isopropyl-5-methylphenyl)-4-oxothiazolidin-2-ylidene)-3-(1-(4-(3-(4-(trifluoromethoxy)phenyl)ureido)phenyl)propan-2-yl)urea]",mortality at 50 µg/cm2,[1],50 to 100%
same,mortality at 50 µg/cm2,[2],50 to 100%
same,YFM % Control (or Mortality) rating,[3],A (80-100)
